Structures are written as SMILES.

The nature of this data set: Human HepG2 cell viability assay in 384 well format. Also noted: dose 125 nL, time 70.5 hour; concentration not given beside the values. As to conditions: HepG2 cells, read-out: Inhibition. Format: toxicity, cell-based.
In the case of `CN(CCc1ccccc1)Cc1nc(-c2cnccn2)no1`, the cytotoxicity at 70.5 h was -8.36%. In the case of `COc1cccc(OCCNCc2ccccc2)c1` it was -7.2%. For `CN(C)C(=O)c1cn2cc(-c3cccc(Cl)c3)n(CC3CC3)c(=O)c2n1` the value was -5.52%.

On to `CSc1ccccc1C(=O)N(C)C1CCCN(CCc2ccccc2)C1` (configuration not stated), for which the cytotoxicity at 70.5 h was -5.22%. Regarding `COC(=O)NCC(=O)N1CCCn2nc(CN3CC[C@H](F)C3)cc2C1`, the cytotoxicity at 70.5 h was -3.88%.

Turning to `O=C(N[C@H]1CN(c2nc(CO)cs2)C[C@@H]1C1CC1)C1CCCCC1`, the cytotoxicity at 70.5 h was -6.79%. For the molecule `COc1ccccc1-n1nc(-c2ccco2)n(CC(=O)NC2CC2)c1=O`, the cytotoxicity at 70.5 h was 10.2%.

Regarding `Cc1cc(NCc2ccc(C#N)cc2)n2nc(C)cc2n1`, the cytotoxicity at 70.5 h is -4.7%.

Regarding `CC(C)N1CCC(C(=O)N2CCN(c3cccc(C(=O)O)c3)CC2)CC1`, the cytotoxicity at 70.5 h was -9.74%. Turning to `O=C(c1cccnc1-c1ccoc1)N1C[C@H]2CC[C@@H]1C2`, the cytotoxicity at 70.5 h is -10.4%.

On to `CN1C[C@@H](n2cnc(-c3ccccc3)c2-c2ccccn2)C[C@H]1C(=O)O`, for which the cytotoxicity at 70.5 h is -10%. For `CN(Cc1n[nH]c2c1CCCC2)c1nc2c(c(=O)[nH]1)CCNCC2`, the cytotoxicity at 70.5 h was -4.95%. As to `COc1cccc(C(C(=O)O)N2CCCN(c3ccnc(C)c3)CC2)c1` (configuration not stated), the cytotoxicity at 70.5 h was -7.15%.

For the molecule `COc1ccc2nc(CNC(=O)C3CC4(CCNCC4)CN3C)[nH]c2c1` (configuration not stated), the cytotoxicity at 70.5 h is -20.5%. `COc1cc(C)cc(OC)c1C(C(=O)O)N(C)Cc1c(C)nn(C)c1C` (configuration not stated): the cytotoxicity at 70.5 h was -14.7%. Regarding `COC(=O)c1cc(OCC2CCC2)cc(C(=O)NCC(C)(C)O)c1`, the cytotoxicity at 70.5 h is -4.36%. For the molecule `Cc1ccc2c(c1)SCC(=O)N2Cc1noc(C2CCCO2)n1` (configuration not stated), the cytotoxicity at 70.5 h was -11.5%. For the molecule `CCn1c(C)nnc1SCCn1cc(-c2nccs2)nn1`, the cytotoxicity at 70.5 h was -7.44%. On to `Cc1ccc(N2CCCN(CC3CC3)C(C(C)C)C2)nn1` (configuration not stated), for which the cytotoxicity at 70.5 h was -14.3%.

For the molecule `CC(C)(C)c1cn(C2CCN(C3CCSC3)CC2)nn1` (configuration not stated), the cytotoxicity at 70.5 h was -7.05%.

For the molecule `O=C(CCN1CCCCO1)NC1CCCN(CC2CCCCC2)C1` (configuration not stated), the cytotoxicity at 70.5 h is -8.52%. Regarding `CS(=O)(=O)NCC1(O)CCCN(C(=O)CCn2cc(Cl)cn2)CC1` (configuration not stated), the cytotoxicity at 70.5 h was -1.38%.

Take `Cc1nn(C)c(C)c1CN(Cc1cccn1-c1ncccn1)C(C)C`: the cytotoxicity at 70.5 h turned out to be 3.54%.

Consider `Cc1cc(C(=O)NCCC2CN(C)CCO2)c2cccc(C)c2n1` (configuration not stated), for which the cytotoxicity at 70.5 h was -11.4%. Consider `CCC(Nc1cccc(OC)c1)C(=O)NCc1ccc2c(c1)OCO2` (configuration not stated), for which the cytotoxicity at 70.5 h is -8.45%. On to `CCc1oc(C(=O)NC(C)Cc2cnccn2)cc1CN1CCCC1` (configuration not stated), for which the cytotoxicity at 70.5 h was -14.2%. In the case of `C[C@@H]1CN(C2(C(=O)N(C)C)Cc3ccccc3C2)C[C@H](C)O1` it was 13.4%. `Cc1cc(C)n(C2CN(C(=O)c3cn4ccsc4n3)C2)n1`: the cytotoxicity at 70.5 h amounted to 2.53%. As for `CC(=O)N1C[C@@H]2CC[C@H](C1)N(S(=O)(=O)c1ccccc1Cl)C2`, the cytotoxicity at 70.5 h was -14.4%.

Regarding `Cc1ccc(CNC(=O)c2cc(Cn3ccnc3C(C)C)[nH]n2)o1`, the cytotoxicity at 70.5 h is 20.2%. Turning to `CCN(Cc1noc(C2CCC2)n1)C(=O)c1cn2ccsc2n1`, the cytotoxicity at 70.5 h was found to be 14.6%. Regarding `CC(Nc1ncnc2c1CCNCC2)c1nc2c(s1)CCCC2` (configuration not stated), the cytotoxicity at 70.5 h is -5.82%.

`O=C(Nc1ccc(F)c(Cl)c1)N1CCCN([C@H]2COC[C@@H]2O)CC1`: the cytotoxicity at 70.5 h was -14.1%.

Turning to `Cc1cccnc1CCNC(=O)[C@@]12CNC[C@@H]1CN(S(C)(=O)=O)C2`, the cytotoxicity at 70.5 h is -1.74%. Consider `CCC1CCN(CCn2cnc3c(C)csc3c2=O)CC1`, for which the cytotoxicity at 70.5 h was -6.08%. On to `Cc1cccc2c1nc(COCC(=O)O)n2-c1cnc(N)cn1`, for which the cytotoxicity at 70.5 h is -4.53%. For the molecule `CCC(CC)CN1CCC(n2cc(C3CCCC3)nn2)CC1`, the cytotoxicity at 70.5 h is -3.87%. For `FC(F)(F)CCc1ccnc(NCc2csc(N3CCOCC3)n2)n1`, the cytotoxicity at 70.5 h is -10.4%. Regarding `COc1ccc(CC2CN(C(=O)c3ocnc3C)CCO2)cc1` (configuration not stated), the cytotoxicity at 70.5 h stood at 14.4%. Consider `CN(CCn1ccnc1-c1ccccn1)S(C)(=O)=O`, for which the cytotoxicity at 70.5 h stood at 11.9%.

With `c1ccc(Oc2nccc3occc23)c(CN2CCCCC2)c1`, the cytotoxicity at 70.5 h amounted to 6.4%. `Cc1ccc2nc(C(=O)N3CCNC(=O)C3c3cccc(F)c3)cn2c1` (configuration not stated): the cytotoxicity at 70.5 h is 24.1%. As to `O=c1[nH]c(-c2ccc(F)cc2)nc2c1CCNC2`, the cytotoxicity at 70.5 h was -0.466%.

Consider `CCNC(=O)[C@@H]1C[C@H](N)CN1Cc1ccc(-c2ccccc2C#N)o1`, for which the cytotoxicity at 70.5 h was 9.56%. With `COCCCC1CCCCN1S(=O)(=O)c1cccc(C#N)c1` (configuration not stated), the cytotoxicity at 70.5 h was determined as 4.41%. Turning to `COCC1(NC(=O)C(c2ccc(F)cc2)N(C)C)CCCC1` (configuration not stated), the cytotoxicity at 70.5 h stood at 7.27%. With `CCc1cc(-c2ccnc3c2ccn3C)nc(N2CCOCC2)n1`, the cytotoxicity at 70.5 h came out at 1.11%.

For the molecule `CCN(CC)S(=O)(=O)N1C[C@@H]2CC[C@H](C1)N(Cc1cscn1)C2=O`, the cytotoxicity at 70.5 h was -9.09%. As to `O=C1N(CCO)CCCC12CCN(Cc1nnc(C3CC3)o1)C2` (configuration not stated), the cytotoxicity at 70.5 h came to 0.803%.

In the case of `CNCCNc1ccc(-c2nc(-c3cccc(OC)c3OC)no2)cn1`, the cytotoxicity at 70.5 h is -2.42%. Regarding `O=C(c1ccc(F)c(F)c1)N1CCC(Cn2cc(CO)nn2)CC1`, the cytotoxicity at 70.5 h is -3.06%. Regarding `NC(=O)CCn1cc(CNCCCc2csc(N)n2)c2ccccc21`, the cytotoxicity at 70.5 h is -6.3%. For `Cc1nc(-c2c(-c3ccccc3)ncn2[C@H]2C[C@@H](C(=O)O)N(C)C2)co1` the value was -11.1%; for `COCCN1C(=O)[C@H]2CC[C@@H]1CN(C(=O)Cc1c(F)cccc1Cl)C2`, -8.61%; for `CC(C)c1nccn1C(C)C(=O)N1CCN(c2cnccn2)CC1` (configuration not stated), -11.1%. Regarding `CCc1nnc(CN(C)c2nccc(CCC(F)(F)F)n2)o1`, the cytotoxicity at 70.5 h is -9.32%. Turning to `COc1ccc(CNC2CCCc3nc(N(C)C)ncc32)c(OC)c1` (configuration not stated), the cytotoxicity at 70.5 h is -8.28%.

Consider `Cc1cccnc1CN(C)C(C(=O)O)c1ccc(-c2ccn[nH]2)cc1` (configuration not stated), for which the cytotoxicity at 70.5 h was -3.62%.

On to `COc1cnc(CN2CCN(CC(C)C)C(=O)C2C)cc1O` (configuration not stated), for which the cytotoxicity at 70.5 h is 0.0157%.

As to `COCC(=O)N(Cc1cccc(C)c1)Cc1ccccc1OC`, the cytotoxicity at 70.5 h was -4.3%. Regarding `Cc1cc(C2CCC2)nc(NCC(C)(C)N2CCOCC2)n1`, the cytotoxicity at 70.5 h was found to be 15.4%. Take `COc1coc(CN2CCCC3(CCC(=O)N(C4CC4)C3)C2)cc1=O` (configuration not stated): the cytotoxicity at 70.5 h was -12.4%. `Cc1[nH]c2ccc(CNc3cc(C#N)ccn3)cc2c1C`: the cytotoxicity at 70.5 h was -4.75%. For `CC(C)Cn1cncc1CNC(=O)c1cccc(Cn2cccn2)c1`, the cytotoxicity at 70.5 h is -5.12%. For the molecule `Cc1nn(CCN2CCSCC2)cc1CNCC1CC1`, the cytotoxicity at 70.5 h was -14.6%.

For the molecule `CO[C@H]1CN(Cc2cc(Cn3cncn3)c(C)cc2C)CC[C@H]1N`, the cytotoxicity at 70.5 h was 6.57%. For the molecule `O=C1CC2(CCCC2)CN1CCOc1ccc(F)cc1`, the cytotoxicity at 70.5 h is -9.74%. On to `Cc1ncc(C)c(N2Cc3cnn(Cc4ccc(F)cc4)c3C2)n1`, for which the cytotoxicity at 70.5 h came to 13%. Turning to `Cn1ncc(N2CCC(CNC(=O)[C@@H](N)c3ccccc3)CC2)cc1=O`, the cytotoxicity at 70.5 h was -4.64%. For `C=C(C)COc1cccc(CN(CC)Cc2noc(C)n2)c1` the value was -0.0989%; for `N[C@@H]1CCN(Cc2cccc(N3CCOCC3)c2)C[C@H]1O`, 26.8%; for `CCCn1cc(C(=O)NC2CCN(CC(=O)NC3CC3)CC2)c(C)n1`, 0.264%. For `CCNc1ncc(C2CC(=O)Nc3c2cnn3Cc2ccncc2)cn1` (configuration not stated) the value was 5.87%; for `Cc1nc(CNCc2cccc(OC34CCCN(CC3)C4)c2)n[nH]1` (configuration not stated), -3.22%; for `Cc1nc2c(c(NCCc3nc(C)c(Cl)s3)n1)CCNCC2`, -11%.

Take `O=C1N(Cc2ccc(F)c(F)c2)CCCC12CCN(C1CCCC1)C2` (configuration not stated): the cytotoxicity at 70.5 h was -2.62%.

Take `CCc1ccc(CNC[C@H]2C[C@@H](CO)N(C)[C@H]2c2ccccc2F)o1`: the cytotoxicity at 70.5 h is -2.04%. For `Cc1c(C)c(C)c2[nH]c(-c3cn(C4CCNCC4)nn3)nc2c1C` the value was -5.74%; for `CCc1cc(NCCNc2ccncc2C)n2nc(C)c(C)c2n1`, -1.4%; for `Cc1cc(C)n2ncc(CN3CCC(Cn4cc(CO)nn4)CC3)c2n1`, 0.595%.

Take `CNC(=O)Cc1ccc(-n2ccnc2-c2cccc(C(=O)O)c2)cc1`: the cytotoxicity at 70.5 h was 17.5%.

Take `CN1CCC(N(CCc2ccccc2)Cc2noc(C3CC3)n2)CC1`: the cytotoxicity at 70.5 h was -12.8%. As to `Nc1cnc(-c2ccc(F)cc2Cl)cn1`, the cytotoxicity at 70.5 h came to 10.8%. As to `CN1CCC(N(C)CCC(=O)N2CCN(Cc3cccc(F)c3)CC2)C1` (configuration not stated), the cytotoxicity at 70.5 h is -0.236%.

`C=C(C)COc1ccccc1CN1CCC(C(=O)NCC)C1` (configuration not stated): the cytotoxicity at 70.5 h was -7.01%. With `NCC1CCN(c2cnn(CCCn3cccn3)c(=O)c2)CC1`, the cytotoxicity at 70.5 h is -8.18%. For `CNC(=O)[C@@H]1C[C@H](N)CN1Cc1cc2cc(OC)ccc2nc1O` the value was -8.56%. In the case of `Cn1c(CCNC(=O)CC[C@@H]2CCCN3CCCC[C@H]23)n[nH]c1=O` it was -14.7%; in that of `Cc1cccc(CN2CCCC(O)(CNCc3cccc(F)c3)C2=O)c1` (configuration not stated), -5.44%; in that of `CS(=O)(=O)c1ccc(-c2cc(O)cc(CCC3CCCCN3)c2)cc1` (configuration not stated), -7.28%. Regarding `CS(=O)(=O)N[C@H]1CN(C(=O)CCc2ccco2)C[C@@H]1C1CC1`, the cytotoxicity at 70.5 h came out at 19.3%.

Consider `CC1(c2ccccc2)CCCN(Cc2nnc(-c3cccnc3)o2)C1` (configuration not stated), for which the cytotoxicity at 70.5 h was -3.27%. `Cc1cccc(C(C(=O)NCCCc2ccccn2)N(C)C)c1` (configuration not stated): the cytotoxicity at 70.5 h was 21.2%. With `O=C(CCCn1cncn1)N1CCC2(CCCN(C3CCCC3)C2=O)C1` (configuration not stated), the cytotoxicity at 70.5 h is -4.98%.

Take `CSc1nccc(N2CCC(NCc3ccc4nsnc4c3)CC2)n1`: the cytotoxicity at 70.5 h is 23.1%. Consider `CC(=O)Nc1ccc2nc(CN(C)Cc3snnc3C)ccc2c1`, for which the cytotoxicity at 70.5 h is -9.42%. For the molecule `Cc1cccc(C(=O)N2CCN(S(C)(=O)=O)[C@@H]3CS(=O)(=O)C[C@@H]32)n1`, the cytotoxicity at 70.5 h is -7.33%.

The values are drawn from ChEMBL document CHEMBL3507680, “University of Dundee, Gates Library screen for HepG2 cell viability”.
